What was measured:
Type in all cases: functional
DU-145 = test: Cytotoxicity against human DU145 cells assessed as cellular growth at 10 uM by SRB assay
CAKI-1 = test: Cytotoxicity against human Caki1 cells assessed as cellular growth at 10 uM by SRB assay
HOP-62 = test: Cytotoxicity against human HOP62 cells assessed as cellular growth at 10 uM by SRB assay
A549 = test: Cytotoxicity against human A549 cells assessed as cellular growth at 10 uM by SRB assay
MOLT-4 = test: Cytotoxicity against human MOLT4 cells assessed as cellular growth at 10 uM by SRB assay
IGROV-1 = test: Cytotoxicity against human IGROV1 cells assessed as cellular growth at 10 uM by SRB assay
KM12 = test: Cytotoxicity against human KM12 cells assessed as cellular growth at 10 uM by SRB assay
EKVX = test: Cytotoxicity against human EKVX cells assessed as cellular growth at 10 uM by SRB assay
MDA-MB-231 = test: Cytotoxicity against human MDA-MB-231 cells assessed as cellular growth at 10 uM by SRB assay
SF-268 = test: Cytotoxicity against human SF268 cells assessed as cellular growth at 10 uM by SRB assay
HCT-116 = test: Cytotoxicity against human HCT116 cells assessed as cellular growth at 10 uM by SRB assay
NCI-H460 = test: Cytotoxicity against human NCI-H460 cells assessed as cellular growth at 10 uM by SRB assay
HT-29 = test: Cytotoxicity against human HT-29 cells assessed as cellular growth at 10 uM by SRB assay
NCI-H23 = test: Cytotoxicity against human NCI-H23 cells assessed as cellular growth at 10 uM by SRB assay
COLO 205 = test: Cytotoxicity against human COLO205 cells assessed as cellular growth at 10 uM by SRB assay
SW-620 = test: Cytotoxicity against human SW620 cells assessed as cellular growth at 10 uM by SRB assay
NCI-H522 = test: Cytotoxicity against human NCI-H522 cells assessed as cellular growth at 10 uM by SRB assay
Malme-3M = test: Cytotoxicity against human MALME-3M cells assessed as cellular growth at 10 uM by SRB assay
OVCAR-3 = test: Cytotoxicity against human OVCAR3 cells assessed as cellular growth at 10 uM by SRB assay
U-251 = test: Cytotoxicity against human U251 cells assessed as cellular growth at 10 uM by SRB assay
HCC 2998 = test: Cytotoxicity against human HCC2998 cells assessed as cellular growth at 10 uM by SRB assay
SNB-75 = test: Cytotoxicity against human SNB75 cells assessed as cellular growth at 10 uM by SRB assay
HCT-15 = test: Cytotoxicity against human HCT15 cells assessed as cellular growth at 10 uM by SRB assay
SK-MEL-28 = test: Cytotoxicity against human SK-MEL-28 cells assessed as cellular growth at 10 uM by SRB assay
MDA-MB-435 = test: Cytotoxicity against human MDA-MB-435 cells assessed as cellular growth at 10 uM by SRB assay
OVCAR-5 = test: Cytotoxicity against human OVCAR5 cells assessed as cellular growth at 10 uM by SRB assay
RPMI-8226 = test: Cytotoxicity against human RPMI8226 cells assessed as cellular growth at 10 uM by SRB assay
SF-539 = test: Cytotoxicity against human SF539 cells assessed as cellular growth at 10 uM by SRB assay
HOP-92 = test: Cytotoxicity against human HOP92 cells assessed as cellular growth at 10 uM by SRB assay
ACHN = test: Cytotoxicity against human ACHN cells assessed as cellular growth at 10 uM by SRB assay
MDA-MB-468 = test: Cytotoxicity against human MDA-MB-468 cells assessed as cellular growth at 10 uM by SRB assay
[1] = Cytotoxicity against human NCI-ADR-RES cells assessed as cellular growth at 10 uM by SRB assay
786-0 = test: Cytotoxicity against human 786-0 cells assessed as cellular growth at 10 uM by SRB assay
Hs-578T = test: Cytotoxicity against human Hs578T cells assessed as cellular growth at 10 uM by SRB assay
OVCAR-4 = test: Cytotoxicity against human OVCAR4 cells assessed as cellular growth at 10 uM by SRB assay
UO-31 = test: Cytotoxicity against human UO31 cells assessed as cellular growth at 10 uM by SRB assay
HL-60(TB) = test: Cytotoxicity against human HL-60(TB) cells assessed as cellular growth at 10 uM by SRB assay
SNB-19 = test: Cytotoxicity against human SNB19 cells assessed as cellular growth at 10 uM by SRB assay
SK-OV-3 = test: Cytotoxicity against human SKOV3 cells assessed as cellular growth at 10 uM by SRB assay
UACC-62 = test: Cytotoxicity against human UACC62 cells assessed as cellular growth at 10 uM by SRB assay
SN12C = test: Cytotoxicity against human SN12C cells assessed as cellular growth at 10 uM by SRB assay
SF-295 = test: Cytotoxicity against human SF295 cells assessed as cellular growth at 10 uM by SRB assay
BT-549 = test: Cytotoxicity against human BT549 cells assessed as cellular growth at 10 uM by SRB assay
PC-3 = test: Cytotoxicity against human PC3 cells assessed as cellular growth at 10 uM by SRB assay
TK-10 = test: Cytotoxicity against human TK10 cells assessed as cellular growth at 10 uM by SRB assay
LOX IMVI = test: Cytotoxicity against human LOXIMVI cells assessed as cellular growth at 10 uM by SRB assay
NCI-H322M = test: Cytotoxicity against human NCI-H322M cells assessed as cellular growth at 10 uM by SRB assay
SK-MEL-5 = test: Cytotoxicity against human SK-MEL-5 cells assessed as cellular growth at 10 uM by SRB assay
OVCAR-8 = test: Cytotoxicity against human OVCAR8 cells assessed as cellular growth at 10 uM by SRB assay
NCI-H226 = test: Cytotoxicity against human NCI-H226 cells assessed as cellular growth at 10 uM by SRB assay
A498 = test: Cytotoxicity against human A498 cells assessed as cellular growth at 10 uM by SRB assay
UACC-257 = test: Cytotoxicity against human UACC257 cells assessed as cellular growth at 10 uM by SRB assay
RXF 393 = test: Cytotoxicity against human RXF393 cells assessed as cellular growth at 10 uM by SRB assay
K562 = test: Cytotoxicity against human K562 cells assessed as cellular growth at 10 uM by SRB assay
CCRF-CEM = test: Cytotoxicity against human CCRF-CEM cells assessed as cellular growth at 10 uM by SRB assay
SK-MEL-2 = test: Cytotoxicity against human SK-MEL-2 cells assessed as cellular growth at 10 uM by SRB assay
MCF7 = test: Cytotoxicity against human MCF7 cells assessed as cellular growth at 10 uM by SRB assay
M14 = test: Cytotoxicity against human M14 cells assessed as cellular growth at 10 uM by SRB assay
T47D = test: Cytotoxicity against human T47D cells assessed as cellular growth at 10 uM by SRB assay

COc1cc(/C=c2/sc3nc4ccccc4n3c2=O)cc(I)c1O
Activity (DU-145): 102.39%
Activity (CAKI-1): 79.77%
Activity (HOP-62): 101.47%
Activity (A549): 88.66%
Activity (MOLT-4): 78.31%
Activity (IGROV-1): 110.46%
Activity (KM12): 80.63%
Activity (EKVX): 92.52%
Activity (MDA-MB-231): 107.43%
Activity (SF-268): 99.48%
Activity (HCT-116): 98.72%
Activity (NCI-H460): 95.07%
Activity (HT-29): 104.58%
Activity (NCI-H23): 94.22%
Activity (COLO 205): 103.31%
Activity (SW-620): 93.08%
Activity (NCI-H522): 99.27%
Activity (Malme-3M): 109%
Activity (OVCAR-3): 97.63%
Activity (U-251): 101.21%
Activity (HCC 2998): 106.16%
Activity (SNB-75): 114.58%
Activity (HCT-15): 91.48%
Activity (SK-MEL-28): 111.82%
Activity (MDA-MB-435): 97.54%
Activity (OVCAR-5): 102.12%
Activity (RPMI-8226): 74.12%
Activity (SF-539): 112.47%
Activity (HOP-92): 93.81%
Activity (ACHN): 107.3%
Activity (MDA-MB-468): 71.12%
Activity [1]: 92.89%
Activity (786-0): 97.48%
Activity (Hs-578T): 107.68%
Activity (OVCAR-4): 96.8%
Activity (UO-31): 70.56%
Activity (HL-60(TB)): 81.81%
Activity (SNB-19): 108.08%
Activity (SK-OV-3): 96.7%
Activity (UACC-62): 79.91%
Activity (SN12C): 101.23%
Activity (SF-295): 88.17%
Activity (BT-549): 102.32%
Activity (PC-3): 95.27%
Activity (TK-10): 116.5%
Activity (LOX IMVI): 93.01%
Activity (NCI-H322M): 109.21%
Activity (SK-MEL-5): 81.43%
Activity (OVCAR-8): 97.39%
Activity (NCI-H226): 94.19%
Activity (A498): 69.55%
Activity (UACC-257): 105.01%
Activity (RXF 393): 116.35%
Activity (K562): 51.46%
Activity (CCRF-CEM): 83.8%
Activity (SK-MEL-2): 104.64%
Activity (MCF7): 93.11%
Activity (M14): 107.28%
Activity (T47D): 82.96%

Cc1ccc(NC(=O)c2sc3nc4c(cc3c2N)C(=O)CCC4)c(Br)c1
Activity (DU-145): 108.79%
Activity (CAKI-1): 94.2%
Activity (HOP-62): 95.12%
Activity (A549): 92.09%
Activity (MOLT-4): 103.27%
Activity (IGROV-1): 112.76%
Activity (KM12): 97.82%
Activity (EKVX): 89.55%
Activity (MDA-MB-231): 118.27%
Activity (SF-268): 100.61%
Activity (HCT-116): 106.38%
Activity (NCI-H460): 101.57%
Activity (HT-29): 107.12%
Activity (NCI-H23): 102.24%
Activity (COLO 205): 113.39%
Activity (SW-620): 97.41%
Activity (NCI-H522): 103.96%
Activity (Malme-3M): 95.81%
Activity (OVCAR-3): 101.82%
Activity (U-251): 94.7%
Activity (HCC 2998): 102.39%
Activity (SNB-75): 107.29%
Activity (HCT-15): 103.46%
Activity (SK-MEL-28): 107.72%
Activity (MDA-MB-435): 94.29%
Activity (OVCAR-5): 105.13%
Activity (RPMI-8226): 109.86%
Activity (SF-539): 108.91%
Activity (HOP-92): 107.03%
Activity (ACHN): 107.36%
Activity (MDA-MB-468): 106.56%
Activity [1]: 102.67%
Activity (786-0): 107.4%
Activity (Hs-578T): 100.84%
Activity (OVCAR-4): 105.66%
Activity (UO-31): 94.06%
Activity (HL-60(TB)): 111.67%
Activity (SNB-19): 100.23%
Activity (SK-OV-3): 92.59%
Activity (UACC-62): 95.44%
Activity (SN12C): 94.31%
Activity (SF-295): 91.32%
Activity (BT-549): 113.85%
Activity (PC-3): 102.4%
Activity (TK-10): 131.53%
Activity (LOX IMVI): 102.77%
Activity (NCI-H322M): 103.11%
Activity (SK-MEL-5): 92.03%
Activity (OVCAR-8): 98.57%
Activity (NCI-H226): 99.85%
Activity (A498): 83.73%
Activity (UACC-257): 96.22%
Activity (RXF 393): 118.46%
Activity (K562): 104.86%
Activity (CCRF-CEM): 103.07%
Activity (MCF7): 96.02%
Activity (M14): 105.12%
Activity (T47D): 89.73%

Reference: ChEMBL document CHEMBL2202954, “The effect of PLC-γ2 inhibitors on the growth of human tumour cells” (2012)
